According to the supplement of paper PMC10307832:

What follows are cell lines tested with CCOC(=O)CCNc1cc(N2CCc3ccccc3CC2)nc(-c2ccccn2)n1 [GSK-J4] + NC(=O)Nc1cc(-c2cccc(F)c2)sc1C(=O)N[C@H]1CCCNC1 [AZD7762] (partner 0.2 µM) (assay: relative viability (nuclei count vs DMSO), 5 days (fraction); higher = more cells survive). Details: first compound 0.5 µM.
Method in brief: (§1)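 Medians of duplicate plates are given as relative viability. That measure is the nuclei count in treated wells divided by the count in vehicle wells. Counts were taken on 4× images of lung cancer cell lines in 1536-well plates, 5 days after pin-tool dosing the day after seeding with one drug alone or a fixed anchor-drug dose plus five library-drug doses (not always all listed) in √10 steps.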

Row | Cell Line | relative viability
1 | NCI-H1793 | 0.595
2 | RERF-LC-KJ | 0.916
3 | EMC-BAC-2 | 1.12
4 | LCLC-97TM1 | 0.197
5 | NCI-H1651 | 0.4
6 | NCI-H2170 | 0.776
7 | ABC-1 | 0.784
8 | NCI-H727 | 0.425

Same assay, conditions: first compound 1.581 µM

Row | Cell Line | relative viability
9 | NCI-H1793 | 0.324
10 | RERF-LC-KJ | 0.825
11 | EMC-BAC-2 | 0.831
12 | LCLC-97TM1 | 0.23
13 | NCI-H1651 | 0.468
14 | NCI-H2170 | 0.839
15 | ABC-1 | 0.784
16 | NCI-H727 | 0.54

Same assay, conditions: first compound 5 µM

Row | Cell Line | relative viability
17 | NCI-H1793 | 0.215
18 | RERF-LC-KJ | 0.812
19 | LCLC-97TM1 | 0.384
20 | NCI-H1651 | 0.466
21 | NCI-H2170 | 0.774
22 | ABC-1 | 0.955
23 | NCI-H727 | 0.728

Same assay, conditions: first compound 15.81 µM

Row | Cell Line | relative viability
24 | NCI-H1793 | 0.151
25 | RERF-LC-KJ | 0.821
26 | EMC-BAC-2 | 1.07
27 | LCLC-97TM1 | 0.209
28 | NCI-H1651 | 0.406
29 | NCI-H2170 | 0.667
30 | ABC-1 | 0.666
31 | NCI-H727 | 0.585

Same assay, conditions: first compound 50 µM

Row | Cell Line | relative viability
32 | NCI-H1793 | 0.156
33 | RERF-LC-KJ | 0.672
34 | EMC-BAC-2 | 0.893
35 | LCLC-97TM1 | 0.337
36 | NCI-H1651 | 0.38
37 | NCI-H2170 | 0.836
38 | ABC-1 | 0.445
39 | NCI-H727 | 0.341

Each cell line was assayed with CN1CCC(CC1)OC2=CC(=C(C=C2)NC3=NC=C4C(=N3)N(C(=O)N4C)C5CCCC5)OC [AZ3146] + Cc1nc(NC(=O)N2CCC[C@H]2C(N)=O)sc1-c1ccnc(C(C)(C)C(F)(F)F)c1 [Alpelisib] (partner 2 µM) in the same assay as above. Details: first compound 0.08 µM.
Method in brief: as §1

Row | Cell Line | relative viability
40 | NCI-H1793 | 0.578
41 | RERF-LC-KJ | 0.805
42 | EMC-BAC-2 | 0.718
43 | NCI-H1651 | 0.879
44 | NCI-H2170 | 0.72
45 | ABC-1 | 0.968
46 | NCI-H727 | 0.506

Same assay, conditions: first compound 0.253 µM

Row | Cell Line | relative viability
47 | NCI-H1793 | 0.743
48 | RERF-LC-KJ | 0.834
49 | EMC-BAC-2 | 0.718
50 | NCI-H1651 | 1.02
51 | NCI-H2170 | 0.767
52 | ABC-1 | 0.981
53 | NCI-H727 | 0.457

Same assay, conditions: first compound 0.8 µM

Row | Cell Line | relative viability
54 | NCI-H1793 | 0.758
55 | RERF-LC-KJ | 0.685
56 | EMC-BAC-2 | 0.768
57 | LCLC-97TM1 | 0.245
58 | NCI-H1651 | 0.936
59 | NCI-H2170 | 0.82
60 | ABC-1 | 1.23
61 | NCI-H727 | 0.48

Same assay, conditions: first compound 2.53 µM

Row | Cell Line | relative viability
62 | NCI-H1793 | 0.779
63 | RERF-LC-KJ | 0.888
64 | EMC-BAC-2 | 0.743
65 | LCLC-97TM1 | 0.3
66 | NCI-H1651 | 1.1
67 | NCI-H2170 | 0.794
68 | ABC-1 | 1
69 | NCI-H727 | 0.612

Same assay, conditions: first compound 8 µM

Row | Cell Line | relative viability
70 | NCI-H1793 | 0.624
71 | RERF-LC-KJ | 0.747
72 | EMC-BAC-2 | 0.84
73 | LCLC-97TM1 | 0.247
74 | NCI-H1651 | 0.958
75 | NCI-H2170 | 0.733
76 | ABC-1 | 1.09
77 | NCI-H727 | 0.333

The cell lines below were run with CCOC(=O)CCNc1cc(N2CCc3ccccc3CC2)nc(-c2ccccn2)n1 [GSK-J4] + Cc1cc(Nc2cc(N3CCN(C)CC3)nc(Sc3ccc(NC(=O)C4CC4)cc3)n2)n[nH]1 [Tozasertib] (partner 0.1 µM) in the same assay as above. Details: first compound 0.5 µM.
Method in brief: as §1

Row | Cell Line | relative viability
78 | NCI-H1793 | 0.331
79 | RERF-LC-KJ | 0.415
80 | EMC-BAC-2 | 0.251
81 | LCLC-97TM1 | 0.322
82 | NCI-H1651 | 0.674
83 | NCI-H2170 | 0.599
84 | ABC-1 | 0.188
85 | NCI-H727 | 0.714

Same assay, conditions: first compound 1.581 µM

Row | Cell Line | relative viability
86 | NCI-H1793 | 0.315
87 | RERF-LC-KJ | 0.428
88 | EMC-BAC-2 | 0.248
89 | LCLC-97TM1 | 0.187
90 | NCI-H1651 | 0.623
91 | NCI-H2170 | 0.544
92 | ABC-1 | 0.166
93 | NCI-H727 | 0.541

Same assay, conditions: first compound 5 µM

Row | Cell Line | relative viability
94 | NCI-H1793 | 0.305
95 | RERF-LC-KJ | 0.483
96 | EMC-BAC-2 | 0.215
97 | LCLC-97TM1 | 0.226
98 | NCI-H1651 | 0.807
99 | NCI-H2170 | 0.692
100 | ABC-1 | 0.171
101 | NCI-H727 | 0.621

Same assay, conditions: first compound 15.81 µM

Row | Cell Line | relative viability
102 | NCI-H1793 | 0.266
103 | RERF-LC-KJ | 0.493
104 | EMC-BAC-2 | 0.263
105 | LCLC-97TM1 | 0.146
106 | NCI-H1651 | 0.569
107 | NCI-H2170 | 0.759
108 | ABC-1 | 0.166
109 | NCI-H727 | 0.585

Same assay, conditions: first compound 50 µM

Row | Cell Line | relative viability
110 | NCI-H1793 | 0.286
111 | RERF-LC-KJ | 0.357
112 | EMC-BAC-2 | 0.285
113 | LCLC-97TM1 | 0.165
114 | NCI-H1651 | 0.567
115 | NCI-H2170 | 0.512
116 | ABC-1 | 0.188
117 | NCI-H727 | 0.463

The cell lines below were run with CCOC(=O)CCNc1cc(N2CCc3ccccc3CC2)nc(-c2ccccn2)n1 [GSK-J4] + COc1cc2c(Oc3ccc(NC(=O)C4(C(=O)Nc5ccc(F)cc5)CC4)cc3F)ccnc2cc1OCCCN1CCOCC1 [Foretinib] (partner 0.25 µM) in the same assay as above. Details: first compound 0.5 µM.
Method in brief: as §1

Row | Cell Line | relative viability
118 | NCI-H1793 | 0.801
119 | RERF-LC-KJ | 0.824
120 | EMC-BAC-2 | 0.93
121 | LCLC-97TM1 | 0.972
122 | NCI-H1651 | 0.765
123 | NCI-H2170 | 0.949
124 | ABC-1 | 1.04
125 | NCI-H727 | 0.808

Same assay, conditions: first compound 1.581 µM

Row | Cell Line | relative viability
126 | NCI-H1793 | 0.575
127 | RERF-LC-KJ | 0.796
128 | EMC-BAC-2 | 0.937
129 | LCLC-97TM1 | 0.953
130 | NCI-H1651 | 0.905
131 | NCI-H2170 | 0.983
132 | ABC-1 | 0.63
133 | NCI-H727 | 0.835

Same assay, conditions: first compound 5 µM

Row | Cell Line | relative viability
134 | NCI-H1793 | 0.737
135 | RERF-LC-KJ | 0.882
136 | EMC-BAC-2 | 0.685
137 | LCLC-97TM1 | 0.909
138 | NCI-H1651 | 0.922
139 | NCI-H2170 | 0.917
140 | ABC-1 | 1.06
141 | NCI-H727 | 1.03

Same assay, conditions: first compound 15.81 µM

Row | Cell Line | relative viability
142 | NCI-H1793 | 0.423
143 | RERF-LC-KJ | 0.803
144 | EMC-BAC-2 | 0.982
145 | LCLC-97TM1 | 0.856
146 | NCI-H1651 | 0.663
147 | NCI-H2170 | 1.02
148 | ABC-1 | 0.989
149 | NCI-H727 | 0.99

Same assay, conditions: first compound 50 µM

Row | Cell Line | relative viability
150 | NCI-H1793 | 0.514
151 | RERF-LC-KJ | 0.852
152 | EMC-BAC-2 | 0.647
153 | LCLC-97TM1 | 0.561
154 | NCI-H1651 | 0.8
155 | NCI-H2170 | 0.958
156 | ABC-1 | 0.846
157 | NCI-H727 | 0.518
